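In this assay, cells in 96-well plates receive the compound at five concentrations for 48 hours. Endpoints are linearly interpolated between the surrounding concentrations. The concentration for 50% growth inhibition is given as GI50. The concentration for full growth arrest is given as TGI.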

In PubChem BioAssay (NCI) one finds GI50 and TGI data, which are given here for five compounds.

Among the test systems are OVCAR-5 ovarian; HOP-62 NSCLC; SF-295 CNS; OVCAR-4 ovarian; SK-MEL-5 melanoma; BT-549 breast; TK-10 renal; SF-268 CNS; LOX IMVI melanoma; KM12 colon.
Assay in all cases: NCI tumour cell line growth inhibition, 48 h

Take `Oc1cccc2ccc(N/N=C/c3cc(CN4CCOCC4)c(O)c4ncccc34)nc12`: the GI50 in the assay on OVCAR-5 ovarian was 135 nM; with HOP-62 NSCLC, 28.1 nM; in the assay with SF-295 CNS, 47.1 nM; in the assay with OVCAR-4 ovarian, 33.9 nM; in the assay with SK-MEL-5 melanoma, 12.4 nM; in the assay on BT-549 breast, 36.3 nM. For the same compound, the GI50 was 49.7 nM in the assay with TK-10 renal, 37.2 nM in the assay on SF-268 CNS, 42.6 nM in the assay with LOX IMVI melanoma and 26.7 nM with KM12 colon. In addition, the TGI in the assay on OVCAR-5 ovarian is 15400 nM; with HOP-62 NSCLC it was 1440 nM; in the assay with SF-295 CNS, 5270 nM; in the assay on OVCAR-4 ovarian, 2140 nM; in the assay with SK-MEL-5 melanoma it was 37.5 nM; with BT-549 breast, 2780 nM. The TGI is 13500 nM with TK-10 renal, 13400 nM with SF-268 CNS, 1410 nM in the assay with LOX IMVI melanoma and 3410 nM with KM12 colon.

As for `COC1=C(OC)C(=O)C(SC/C=C(\C)CCCC(C)CCCC(C)CCCC(C)C)=CC1=O` (stereo not given), the GI50 was 564 nM with OVCAR-5 ovarian; 3050 nM in the assay on HOP-62 NSCLC; 734 nM with SF-295 CNS; 1320 nM with OVCAR-4 ovarian; 341 nM in the assay with SK-MEL-5 melanoma; 993 nM in the assay with BT-549 breast. Besides, the GI50 was 2460 nM in the assay on TK-10 renal, 1980 nM with SF-268 CNS, 488 nM with LOX IMVI melanoma and 934 nM in the assay on KM12 colon. Also, the TGI was greater than 89700 nM with OVCAR-5 ovarian; greater than 100000 nM in the assay on HOP-62 NSCLC; 2880 nM in the assay with SF-295 CNS; greater than 100000 nM with OVCAR-4 ovarian; 1730 nM in the assay on SK-MEL-5 melanoma; 10200 nM with BT-549 breast. The TGI with TK-10 renal was greater than 59400 nM; in the assay with SF-268 CNS, greater than 100000 nM; in the assay with LOX IMVI melanoma, greater than 100000 nM; in the assay on KM12 colon, greater than 87900 nM.

With `Cc1cccc2c3c(sc12)C(c1ccc(Cl)cc1)C(C#N)=C(N)O3` (stereo not given), the GI50 in the assay with OVCAR-5 ovarian was 541 nM; in the assay with HOP-62 NSCLC it was 515 nM; in the assay with SF-295 CNS it was 260 nM; with OVCAR-4 ovarian, 2080 nM; with SK-MEL-5 melanoma, 467 nM; with BT-549 breast it was 980 nM. The GI50 in the assay with TK-10 renal was 5920 nM; with SF-268 CNS, 1410 nM; in the assay with LOX IMVI melanoma, 663 nM; with KM12 colon it was 428 nM. For the same compound, the TGI was 11500 nM with OVCAR-5 ovarian; 13800 nM in the assay with HOP-62 NSCLC; 992 nM with SF-295 CNS; 18500 nM with OVCAR-4 ovarian; 4110 nM with SK-MEL-5 melanoma; 6900 nM with BT-549 breast. Besides, the TGI in the assay on TK-10 renal turned out to be 21700 nM; in the assay on SF-268 CNS, 14800 nM; in the assay with LOX IMVI melanoma, 3920 nM; in the assay with KM12 colon, 10700 nM.

In the case of `OCCNC1c2cc(Cl)ccc2-c2c(Cl)cc(Cl)cc21` (stereo not given), the TGI in the assay with OVCAR-5 ovarian, in the assay on HOP-62 NSCLC, in the assay on SF-295 CNS, in the assay on OVCAR-4 ovarian, in the assay with SK-MEL-5 melanoma and in the assay on BT-549 breast was greater than 100000 nM each time. Further, the TGI in the assay on TK-10 renal, in the assay on SF-268 CNS, in the assay with LOX IMVI melanoma and in the assay on KM12 colon was greater than 100000 nM in each case.

For `CC1OC(OC2C(O)CC(OC3C(O)CC(OC4CCC5(C)C(CCC6C5CC(O)C5(C)C(C7=CC(=O)OC7)CCC65O)C4)OC3C)OC2C)CC(O)C1O` (stereo not given), the GI50 was 137 nM in the assay on OVCAR-5 ovarian; 36 nM with HOP-62 NSCLC; 31.7 nM in the assay with SF-295 CNS; 34.7 nM in the assay on OVCAR-4 ovarian; 37.1 nM with SK-MEL-5 melanoma; 30.9 nM in the assay on BT-549 breast. The GI50 in the assay with TK-10 renal was 29.5 nM; in the assay on SF-268 CNS, 35.9 nM; in the assay on LOX IMVI melanoma, 42.8 nM; with KM12 colon it was 82.4 nM. Besides, the TGI with OVCAR-5 ovarian amounted to 295 nM; in the assay on HOP-62 NSCLC it was 125 nM; in the assay with SF-295 CNS it was 171 nM; with OVCAR-4 ovarian, 139 nM; with SK-MEL-5 melanoma, 129 nM; with BT-549 breast, 101 nM. In addition, the TGI came to 87 nM in the assay on TK-10 renal, 133 nM in the assay with SF-268 CNS, 164 nM in the assay with LOX IMVI melanoma and 280 nM with KM12 colon.
